Two molecules from patent US8178713B2, “Sulfur-containing phospholipid derivatives” (Pronovo Biopharma Norge AS, priority 2002, dated 2012) can be followed below.

Marks after values point to notes of the source that are not given here.

The subject of experiment [1] is Palmitoyl-CoA oxidation in rat liver homogenate. As to the kind of experiment: Palmitoyl-CoA oxidation in rat liver homogenate after feeding. In kind it is in vivo. To be noted: fed 1 mmole TTA/day/kg, 6 days, control 0.75 ± 0.06. The text has this: (§1) Male wistar rats (4-5 rats in each treatment group) were fed TTA, TTA-PC or TTA-TAG at equimolar doses of TTA (1 mmole/day/kg body weight) for 6 days. Control rats received only 0.5% CMC. The rats were sacrificed and evaluated for lipid lowering effects, increased fatty acid oxidation, and activity of key mitochondrian enzymes, carnitine palmitoyltransferase-II, 3-hydroxy-3-methylglutharyl-CoA synthase and fatty acyl-CoA oxidases.
(§2) Male Wistar Charles River rats weighing 200-250 g at the start of the experiment were housed in metal wire cages in a temperature (22±1° C.) and light-controlled (light from 7.00 a.m. to 7.00 p.m.) room. They were given free access to chow and water. […] Weight gain and food intake were recorded daily. […]
(§3) Freshly isolated livers from individual male wistar rats, were homogenised in ice-cold sucrose buffer (0.25 M sucrose, 10 mM HEPES (pH 7.4) and 2 mM EDTA). […] Acid soluble products were measured in post-nuclear fractions, using [1-^14C]-palmitoyl-CoA (Radiochemical Centre, Amersham, England) as substrates as described in literature.^15 Carnitine palmitoyltransferase-II activities were measured in the mitochondrial fraction essentially as described by Bremer^16 and 3-hydroxy-3-methylglutharyl-CoA synthase was measured according to Clinkenbeard et al.^17 in the post-nuclear fraction. […]

The subject of experiment [2] is male Wistar rats. Description: Effect of esterified and non-esterified TTA on hepatic triacylglycerol content. In kind it is in vivo, rat. To be noted: 6 days; for hepatic Triacylglycerol content: fed 1 mmole TTA/day/kg body weight, control 3.71 ± 0.50.
Description: as §1
(§4) Male Wistar Charles River rats weighing 200-250 g at the start of the experiment were housed in metal wire cages in a temperature (22±1° C.) and light-controlled (light from 7.00 a.m. to 7.00 p.m.) room. They were given free access to chow and water. They were fed a Standard Laboratory Rat Chow R-34-EWOS-ALAB (EWOS Sweden) grower rat maintenance chow. Two rats were housed per cage. The animals were acclimatized for at least 5 days before the start of the experiments. Weight gain and food intake were recorded daily. TTA and esterified TFAs (1,2-Di(1,2-Di(tetradecylthioacetoyl)-sn -glycero-3-phosphocholine (TTA-PC) and Glyceryl 1,2,3-Tri(tetradecylthioacetate) (triacylglycerol) (TTA-TAG)) were suspended in 0.5% carboxymethylcellulose (CMC) and administered by gastric intubation in a final volume of 0.8-1.2 ml once a day for 6 days.

Experiment [3] has as its system 3-Hydroxy-3-methylglutharyl-CoA synthase. As to the kind of experiment: 3-Hydroxy-3-methylglutharyl-CoA synthase activity in rat liver homogenate after feeding. To be noted: fed 1 mmole TTA/day/kg, 6 days; for 3-Hydroxy-3-methylglutharyl-CoA synthase Enzyme activity: rat liver homogenate, control 28.23 ± 4.43. The experiment is classed as in vivo.
Description: as §1
Male Wistar Charles River rats weighing 200-250 g at the start of the experiment were housed in metal wire cages in a temperature (22±1° C.) and light-controlled (light from 7.00 a.m. to 7.00 p.m.) room. They were given free access to chow and water. They were fed a Standard Laboratory Rat Chow R-34-EWOS-ALAB (EWOS Sweden) grower rat maintenance chow. Two rats were housed per cage. The animals were acclimatized for at least 5 days before the start of the experiments. Weight gain and food intake were recorded daily. […]
Freshly isolated livers from individual male wistar rats, were homogenised in ice-cold sucrose buffer (0.25 M sucrose, 10 mM HEPES (pH 7.4) and 2 mM EDTA). […] Acid soluble products were measured in post-nuclear fractions, using [1-^14C]-palmitoyl-CoA (Radiochemical Centre, Amersham, England) as substrates as described in literature.^15 Carnitine palmitoyltransferase-II activities were measured in the mitochondrial fraction essentially as described by Bremer^16 and 3-hydroxy-3-methylglutharyl-CoA synthase was measured according to Clinkenbeard et al.^17 in the post-nuclear fraction. Fatty acyl-CoA oxidase was measured in the post-nuclear fraction by the coupled assay described by Small et al.^18 The production of hydrogen peroxide was measured by monitoring the increase in dichlorofluorescein absorbance in the presence of palmitoyl-CoA.

The next experiment relates to Fatty acyl-CoA oxidase. As to the kind of experiment: Fatty acyl-CoA oxidase activity in rat liver homogenate after feeding. In kind it is in vivo. To be noted: fed 1 mmole TTA/day/kg, 6 days, control 16.50 ± 4.74.
Description: as §1, §2, §3

Experiment [4] has as its system mitochondrial carnitine palmitoyltransferase-II. Description: Mitochondrial carnitine palmitoyltransferase-II activity after feeding. To be noted: mitochondrial fraction of liver; fed 1 mmole TTA/day/kg, 6 days; control 8.32 ± 1.42. The experiment is classed as in vivo, rat.
Description: as §1, §2, §3

Experiment [5] deals with male Wistar rats. As to the kind of experiment: Effect of esterified and non-esterified TTA on plasma lipids, fed for 6 days. In kind it is in vivo, rat. To be noted: for plasma Triacylglycerol / plasma Cholesterol: fed at equimolar doses of TTA, 1 mmole/day/kg body weight; for plasma Triacylglycerol: control (0.5% CMC) 1.20 ± 0.35; for plasma Cholesterol: control (0.5% CMC) 1.84 ± 0.25.
Description: as §1, §4
At the end of the experiments the animals were anaesthetized with Fluorane (0.4 ml/100 g body weight) and cardiac puncture was performed to obtain blood samples in EDTA containing vacutainers. Plasma was prepared and triacylglycerol and cholesterol were measured using the Monotest enzymatic kit (Boehringer Mannheim, Germany).

Take `CCCCCCCCCCCCCCSCC(=O)OC[C@H](COP(=O)([O-])OCC[N+](C)(C)C)OC(=O)CSCCCCCCCCCCCCCC` [TTA-PC, 1,2-ditetradecylthioacetoyl-sn-glycero-3-phosphocholine]: the Palm-CoA oxidised in experiment [1] was 1.39 ± 0.15^a nmol/mg/min. Also, the “hepatic Triacylglycerol content” value in the experiment with male Wistar rats [2] is given as 2.53 ± 0.43^a μmol/mg protein. Further, in the experiment on male Wistar rats [2] (fed 1 mmole TTA/day/kg), the “decrease in the hepatic triacylglycerol level compared to the control (largest decrease)” value came out at 30%. In addition, in experiment [3], the “increased 3-hydroxy-3-methylglutharyl-CoA synthase activity relative to that after feeding non-esterified TTA” value is “more than three times as large” and the “3-Hydroxy-3-methylglutharyl-CoA synthase Enzyme activity” value was 97.77 ± 20.51^a,b nmol/mg/min. Moreover, the “Fatty acyl-CoA oxidase Enzyme activity” value in the experiment on Fatty acyl-CoA oxidase is reported as 129.48 ± 15.08^a,b nmol/mg/min. In experiment [4], the “carnitine palmitoyltransferase-II Enzyme activity” value is on record as 31.96 ± 2.63^a,b nmol/mg/min. Moreover, the “decrease in plasma triacylglycerol and cholesterol levels compared to the control (largest decrease)” value in the experiment with male Wistar rats [5] (fed 1 mmole TTA/day/kg) came to 60%. Moreover, in the experiment with male Wistar rats [5], the “plasma Triacylglycerol” value is 0.47 ± 0.21^a,b mmol/L and the “plasma Cholesterol” value is on record as 0.74 ± 0.20^a mmol/L.
Consider `CCCCCCCCCCCCCCSCC(=O)OCC(COC(=O)CSCCCCCCCCCCCCCC)OC(=O)CSCCCCCCCCCCCCCC` [TTA-TAG, 1,2,3-Tritetradecylthioacetoyl-sn-glycerol], for which the Palm-CoA oxidised in experiment [1] was 1.37 ± 0.08^a nmol/mg/min. Also, the “hepatic Triacylglycerol content” value in the experiment on male Wistar rats [2] was 2.88 ± 0.50^a μmol/mg protein. The “3-Hydroxy-3-methylglutharyl-CoA synthase Enzyme activity” value in experiment [3] is 40.35 ± 6.16^a nmol/mg/min. For the same molecule, the “Fatty acyl-CoA oxidase Enzyme activity” value with Fatty acyl-CoA oxidase was 49.87 ± 22.51^a nmol/mg/min. In addition, the “carnitine palmitoyltransferase-II Enzyme activity” value in experiment [4] is listed as 17.88 ± 4.37^a nmol/mg/min. In the experiment with male Wistar rats [5], the “plasma Triacylglycerol” value was 0.56 ± 0.21^a mmol/L and the “plasma Cholesterol” value is 1.18 ± 0.12^a mmol/L.
